Results: patent US20110098442A1, “PEPTIDES AND PEPTIDE DERIVATIVES AS WELL AS PHARMACEUTICAL COMPOSITIONS CONTAINING THE SAME” (priority 2006, published 2011)
Groups on a side chain read outwards from the residue. No end group written: not given here.

Tested on: mouse-adapted Dengue virus (DEN-2, strain P23085)
Test: Dengue virus infection in mice, mortality/survival
Format: in vivo, BALB/c mice
Conditions: 4.8 mg/kg/day intramuscular once a day for 5 days, starting on day 3 after infection, end of treatment period (day 10)
Method: A further possibility for establishing the biological effect in vivo is the reduction or complete suppression of mortality because of an infection with haemolytic viruses or bacteria. For this purpose, mice are, as described in Example 8, for instance infected with a dose of Dengue viruses, wherein 50% of the animals die within a period of 5-20 days after infection. The inventive compounds bring about a reduction of this mortality at a dose ranging from 0.001 to 500 mg/kg body weight, preferably at a dose ranging from […] body weight.
The biological effect of the compound of Example 3 was established in a model of Dengue virus infection in mice. 5-week-old male BALB/c mice were divided into 2 groups. All animals were infected subcutaneously with a mouse-adapted Dengue virus (DEN-2, strain P23085 at a dose of 1-2 LD50. 15 mice received 0.1 ml of 0.8% saline as intramuscular injection (control). The treated animals received 4.8 mg/kg/day of the agent of Example 3 as an intramuscular injection (diluted in 0.1 ml of 0.8% saline) once a day for 5 days, starting on day 3 after the virus infection.
At the end of the treatment period (day 10) the survival rates were compared.

How did the “Mortality (dead animals/animals in group)” value (infection dose 1-2 LD50) turn out when “Gly-His-Arg-Pro-Leu-Asp-Lys-Lys-Arg-Glu-Glu-Ala-Pro-Ser-Leu-Arg-Pro-Ala-Pro-Pro-Pro-Ile-Ser-Gly-Gly-Gly-Tyr-Arg-Cys-(S-succinimido-PEG20K)-amide (GHRPLDKKREEAPSLRPAPPPISGGGYRC([succinimido-PEG 20 kDa])-NH2) [Example 3]” was run?
Its value is 0/10.

And the “Mortality Percentage” value (p < 0.05 vs control)?
The value was 0%.
